Measurements: ChEMBL document CHEMBL3632574, “Synthesis and evaluation of antibacterial activity of (R)-2-methylheptyl isonicotinate, a putative naturally occurring bioactive agent” (2015)
Activity calls are given as the source filed them. The rule behind the calls is not given here.

Key:
Bacillus subtilis [1] = experiment: Bactericidal activity against Bacillus subtilis up to 500 ug/ml after 48 hrs; format: functional, organism-based
Bacillus subtilis [2] = experiment: Bacteriostatic activity against Bacillus subtilis up to 500 ug/ml after 48 hrs; format: functional, organism-based
Escherichia coli [3] = experiment: Bacteriostatic activity against Escherichia coli up to 500 ug/ml after 48 hrs; format: functional, organism-based
Escherichia coli [4] = experiment: Bactericidal activity against Escherichia coli up to 500 ug/ml after 48 hrs; format: functional, organism-based
Bacillus subtilis [5] = experiment: Antibacterial activity against Bacillus subtilis after 48 hrs; format: functional

MIC (Bacillus subtilis [5]) [µg/mL]	SMILES	Activity (Bacillus subtilis [1])	Activity (Bacillus subtilis [2])	Activity (Escherichia coli [3])	Activity (Escherichia coli [4])
	CCCCC[C@@H](C)COC(=O)c1ccncc1	inactive	inactive	inactive	inactive
< 10	CC1(C)S[C@@H]2[C@H](NC(=O)[C@H](N)c3ccccc3)C(=O)N2[C@H]1C(=O)O [AMPICILLIN]				
	CCCCCCCCOC(=O)c1ccncc1	inactive	inactive	inactive	inactive
